Measurements: ChEMBL document CHEMBL1201862, “PubChem BioAssay data set” (2004)
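Compound exposure: 48 hours, 5 concentrations, 96-well plates. The concentration for 50% growth inhibition is given as GI50.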 Active and inactive are the calls of the source. Cut-off read from the data, not from the text of the source: active = GI50 up to about 1.1 µM and inactive = higher.

Assays:
Assay in all cases: NCI tumour cell line growth inhibition, 48 h
[1] = system: MDA-MB-231
[2] = system: RXF 393
[3] = system: SK-MEL-28
[4] = system: EKVX
[5] = system: SF-268
[6] = system: A549
[7] = system: SF-295
[8] = system: T47D
[9] = system: NCI-H460
[10] = system: CCRF-CEM
[11] = system: RPMI-8226
[12] = system: A498
[13] = system: HL-60
[14] = system: HOP-62
[15] = system: MDA-N
[16] = system: BT-549
[17] = system: PC-3
[18] = system: SK-MEL-5
[19] = system: M14
[20] = system: KM-20L2

Row | SMILES | GI50 [1] | GI50 [2] | GI50 [3] | GI50 [4] | GI50 [5] | GI50 [6] | GI50 [7] | GI50 [8] | GI50 [9] | GI50 [10] | GI50 [11] | GI50 [12] | GI50 [13] | GI50 [14] | GI50 [15] | GI50 [16] | GI50 [17] | GI50 [18] | GI50 [19] | GI50 [20]
1 | O=C(O)CC1OCC=C2CN3CCC45C6=CC(=O)C(O)=C([N+](=O)[O-])C6=NC4C1C2CC35 (stereo not given) | > 100 µM (inactive) | > 100 µM (inactive) | > 100 µM (inactive) | > 100 µM (inactive) | > 100 µM (inactive) | > 100 µM (inactive) | > 100 µM (inactive) | > 100 µM (inactive) | > 100 µM (inactive) | 18.1 µM (inactive) | 31 µM (inactive) | > 100 µM (inactive) | 52 µM (inactive) | > 100 µM (inactive) | 44.7 µM (inactive) | > 100 µM (inactive) | > 100 µM (inactive) | > 100 µM (inactive) | > 100 µM (inactive) | –
2 | O=C1/C(=C\c2ccc([N+](=O)[O-])cc2)CS(=O)(=O)C/C1=C/c1ccc([N+](=O)[O-])cc1 | 0.193 µM (active) | 0.482 µM (active) | 1.13 µM (inactive) | 1.21 µM (inactive) | 0.773 µM (active) | 1.85 µM (inactive) | 1.74 µM (inactive) | 0.962 µM (active) | 0.515 µM (active) | 0.264 µM (active) | 0.0942 µM (active) | 1.79 µM (inactive) | 0.324 µM (active) | 1.23 µM (inactive) | 0.35 µM (active) | 0.316 µM (active) | 0.392 µM (active) | 1.4 µM (inactive) | 0.74 µM (active) | –
3 | N=C(N)NCCCC(Nc1c2ccccc2nc2ccccc12)C(=O)O (stereo not given) | – | > 100 µM (inactive) | > 100 µM (inactive) | > 100 µM (inactive) | > 100 µM (inactive) | > 100 µM (inactive) | > 100 µM (inactive) | – | > 100 µM (inactive) | > 100 µM (inactive) | 33.1 µM (inactive) | – | 26.5 µM (inactive) | – | – | – | – | – | > 100 µM (inactive) | > 100 µM (inactive)
4 | CC(C)CC(=O)NS(=O)(=O)c1ccccc1 | – | > 100 µM (inactive) | > 100 µM (inactive) | > 100 µM (inactive) | > 100 µM (inactive) | > 100 µM (inactive) | > 100 µM (inactive) | – | > 100 µM (inactive) | > 100 µM (inactive) | > 100 µM (inactive) | > 100 µM (inactive) | > 100 µM (inactive) | > 100 µM (inactive) | – | – | – | – | > 100 µM (inactive) | > 100 µM (inactive)
5 | CC(C)Cn1cnc2c(NCC(C)O)nc3ccccc3c21 (stereo not given) | > 100 µM (inactive) | > 100 µM (inactive) | > 100 µM (inactive) | 29 µM (inactive) | > 100 µM (inactive) | > 100 µM (inactive) | > 100 µM (inactive) | > 100 µM (inactive) | > 100 µM (inactive) | > 100 µM (inactive) | > 100 µM (inactive) | 60.8 µM (inactive) | 37.5 µM (inactive) | > 100 µM (inactive) | > 100 µM (inactive) | > 100 µM (inactive) | 87.7 µM (inactive) | 70.6 µM (inactive) | > 100 µM (inactive) | –
6 | COc1ccc(N/N=C2\C3=C(CCC(C)(C)O3)C(=O)c3ccccc32)cc1 | 22.2 µM (inactive) | 12.4 µM (inactive) | 22.2 µM (inactive) | 18.1 µM (inactive) | 15.3 µM (inactive) | 16.6 µM (inactive) | 14.8 µM (inactive) | 2.51 µM (inactive) | 14.2 µM (inactive) | 16 µM (inactive) | 16.8 µM (inactive) | 15 µM (inactive) | 15.3 µM (inactive) | 20.9 µM (inactive) | 15.6 µM (inactive) | 19.1 µM (inactive) | 21.9 µM (inactive) | 12.2 µM (inactive) | 20.7 µM (inactive) | –
7 | CCO/C=N/C1=C(C#N)SC2=N/C(=C\c3ccccc3)C(=O)N21 | > 100 µM (inactive) | > 100 µM (inactive) | > 100 µM (inactive) | 77.3 µM (inactive) | > 100 µM (inactive) | > 100 µM (inactive) | > 100 µM (inactive) | 86.9 µM (inactive) | > 100 µM (inactive) | 60.5 µM (inactive) | > 58.1 µM (inactive) | > 85.1 µM (inactive) | 23.9 µM (inactive) | > 100 µM (inactive) | > 100 µM (inactive) | > 100 µM (inactive) | > 100 µM (inactive) | > 100 µM (inactive) | > 100 µM (inactive) | –
8 | CC(=O)OC1(C)N=NC2(CCCCC2)O1 (stereo not given) | > 100 µM (inactive) | > 100 µM (inactive) | > 100 µM (inactive) | > 100 µM (inactive) | > 100 µM (inactive) | > 100 µM (inactive) | > 100 µM (inactive) | > 100 µM (inactive) | > 100 µM (inactive) | > 100 µM (inactive) | > 100 µM (inactive) | > 100 µM (inactive) | 18.9 µM (inactive) | > 100 µM (inactive) | > 100 µM (inactive) | > 100 µM (inactive) | > 100 µM (inactive) | > 100 µM (inactive) | > 100 µM (inactive) | –
